SMILES strings stand for the structures.

A short description of the series: solubility in water (stated in words, no method described). The class given is physicochemical. Particulars: qualitative statement.

For `CNS(=O)(=O)Cc1ccc2[nH]cc(CCN(C)C)c2c1` [Sumatriptane, 1-[3-(2-dimethylaminoethyl)-1H-indol-5-yl]-N-methyl-methanesulfonamide], the solubility in water entry is recorded as “good solubility in water”.
In the case of `COc1ccc2cc(CCC(C)=O)ccc2c1` [Nabumetone, 4-(6-methoxy-2-nafthyl)-2-butanon] it was “very well soluble in water”.
